Data: patent publication US11313861B2, “Method of evaluating hepatic glucose uptake capacity” (OTSUKA PHARMACEUTICAL CO., LTD., priority 2016, dated 2022)

How the values were obtained:
[1] = rat, in vivo, po, 10 mg/kg
Procedure: To unfasted rats (ZDF lean, ZDF fatty, SD, each n=12) 10 mg/kg of ^13C6-glucose was orally administered. […] The blood ^13C6-glucose level was measured by LC/MS/MS.

[2] = Blood ^13C6-glucose level and expired air Δ^13C after oral ^13C6-glucose, 6-week-old ZDF fatty vs ZDF lean rats; assay type: in vivo, rat
Procedure: To fasted ZDF fatty rats (6 weeks old; n=4) and ZDF lean rats (6 weeks old; n=4) 10 mg/kg of ^13C6-glucose (13C6-Glucose [D-GLUCOSE⋅(U-13C6, 99%)], Cambridge Isotope Laboratories, Inc. (Andover, Mass., USA)) was orally administered. Blood samples and expired air samples were collected over time before and after the administration. The Δ^13C values of the obtained expired air samples were measured by GC/MS. The ^13C6-glucose levels in the blood samples were measured by LC/MS/MS. The fasting blood glucose levels were measured before the glucose administration.

[3] = Blood ^13C6-glucose level and expired air Δ^13C after oral ^13C6-glucose, iLIRKO vs IRflox mice; assay type: in vivo, mouse
Text: iLIRKO mouse (inducible liver-specific insulin receptor KO mice) can be used as a model for stage B of pre-onset diabetes, the stage of decreased hepatic extraction ratio, because knock out of insulin receptors can be induced only in the liver (Michael M D, et al., Loss of insulin signaling in hepatocytes leads to severe insulin resistance and progressive hepatic dysfunction. Mol Cell 2000; 6 (1): 87-97). To iLIRKO mice (2 to 3 months old, n=5) and IRflox mice (2 to 3 months old, n=5, control) 10 mg/kg of ^13C6-glucose was orally administered. Blood samples and expired air samples were collected over time before and after the administration. The Δ^13C values of the obtained expired air samples were measured by GC/MS. The ^13C6-glucose levels in the blood samples were measured by LC/MS/MS.

[4] = Blood ^13C6-glucose level and expired air Δ^13C after oral ^13C6-glucose, 7-week-old ZDF fatty vs ZDF lean rats; assay type: in vivo, rat
Procedure: To fasted ZDF fatty rats (7 weeks old; n=4) and ZDF lean rats (7 weeks old; n=4) 10 mg/kg of ^13C6-glucose was orally administered. Blood samples and expired air samples were collected over time before and after the administration. The Δ^13C values of the obtained expired air samples were measured by GC/MS. The ^13C6-glucose levels in the blood samples were measured by LC/MS/MS. The fasting blood glucose levels were measured before the glucose administration.

[5] = rat, in vivo, 10 mg/kg
Procedure: To unfasted ZDF fatty rats (18 weeks old; n=6), ZDF lean rats (18 weeks old; n=6) and SD rats (14 weeks old; n=3) 10 mg/kg of ^13C6-glucose was orally administered. Expired air samples were collected over time before and after the administration and the Δ^13C values of the samples were measured by GC/MS. Three days after the oral administration, 10 mg/kg of ^13C6-glucose was intravenously administered to the same unfasted rats. Expired air samples were collected over time before and after the administration and the Δ^13C values of the samples were measured by GC/MS.
The AUCs of the Δ^13C values were calculated for the oral administration and the intravenous administration, and the difference of the AUCs was calculated. The difference is shown in FIG. 5 as the amount of hepatic glucose uptake (hepatic extraction). […] The mutation is homozygous in the ZDF fatty rats.

SMILES: OC[C@H]1OC(O)[C@H](O)[C@@H](O)[C@@H]1O (stereo partly drawn) [^13C6-glucose, D-GLUCOSE⋅(U-13C6, 99%)]
- hepatic extraction ratio of ^13C6-glucose [1]: high in order of the SD rats, the ZDF lean rats, and the ZDF fatty rats
- blood ^13C6 glucose levels ([2]; fasted 6-week-old ZDF fatty rats vs ZDF lean rats, 10 mg/kg oral, LC/MS/MS): remained lower than those of the ZDF Lean rats
- Δ^13C values of the expired air samples ([2]; rat, in vivo, po, 10 mg/kg): kept higher than those of the ZDF lean rats
- blood ^13C6 glucose levels ([3]; iLIRKO mice vs IRflox mice, 10 mg/kg oral, LC/MS/MS): kept higher than those of IRflox mice
- Δ^13C values of the expired air samples ([3]; mouse, in vivo, po, 10 mg/kg): kept higher than those of IRflox mice
- blood ^13C6 glucose levels ([4]; fasted 7-week-old ZDF fatty rats vs ZDF lean rats, 10 mg/kg oral, LC/MS/MS): remained higher than those of the ZDF Lean rats
- Δ^13C values of the expired air samples ([4]; rat, in vivo, po, 10 mg/kg): kept higher than those of the ZDF lean rats
- amount of hepatic glucose uptake (hepatic extraction), difference of the AUCs of Δ^13C between oral and intravenous administration [5]: high in order of the SD rats, the ZDF lean rats, and the ZDF fatty rats
